Source: patent US5061711A, “Method of curing liver diseases by using pyrrolo quinoline quinone triesters and novel pyrrolo quinoline quinone triesters” (Mitsubishi Gas Chemical Company, Inc., priority 1989, dated 1991)
Like-named read-outs stand apart in the source and are kept apart here. One block for each compound: values may come before it.

How the values were obtained:
[1] = Solubility; assay type: physicochemical
[2] = bovine, not told, 960 min
Procedure: Each compound dissolved in 10 mM HEPES buffer (containing 1%DMSO in the case of PQQ triesters) was put in an apparatus for measurement of membrane permeation constant and left to stand for 16 hours at 35 ° C. and then amount of the compound which migrated was measured by ultraviolet absorption (243 nm for PQQ 2Na and 255 nm for PQQ triester) to obtain membrane permeation constant.

[3] = system: mice; test: Kidney toxicity determined by urine test; assay type: in vivo, mouse; conditions: mouse, in vivo, ip
Procedure: (2) Kidney toxicity determined by urine test
PQQ.2Na, PQQ trimethyl ester and PQQ triallyl ester were intraperitoneally administered to mice and they were bred in the same manner as in the above acute toxicity test. The doses per kg of body weight of mouse were 20, 40 and 80 mg for PQQ.2Na and 20, 40, 80, 160 and 200 mg for PQQ triesters. Urine was collected every day and glucose concentration was examined using clinical examination reagent (trademark: […] II manufactured by Miles.Sankyo Co.).

[4] = system: kidney; conditions: Watanabe et al 1989; cited from earlier work
[5] = system: liver diseases; conditions: cited from earlier work
[6] = system: mice; test: Kidney toxicity determined by blood examination; assay type: in vivo, mouse; conditions: mouse, in vivo, ip
Procedure: (3) Kidney toxicity determined by blood examination:
After lapse of one day from the administration, the mice were fasted (only water was given) and then after 18 hours, blood was collected and serum was obtained therefrom. Glucose, urea nitrogen and creatinine in the serum were examined by clinical examination reagent (trademark: FUJI DRYCHEMSLIDE manufactured by Fuji Photo Film Co., Ltd.). The results are shown by average value of eight mice in Table 3.

[7] = system: male mice SPF-ICR; test: Acute toxicity test; conditions: mouse, in vivo, ip
Procedure: To male mice SPF-ICR five weeks old (supplied by Japan Charles River Co.) were intraperitoneally administered PQQ.2Na, PQQ trimethyl ester and PQQ triallyl ester at dosages of 40, 80, 160 and 200 mg per kg of body weight of mouse, respectively and they were bred for 14 days at 25° C. One group consisted of 8 mice. For administration, PQQ.2Na was dissolved in physiological saline and PQQ trimethyl ester and PQQ triallyl ester were suspended in 1%Tween 80-containing physiological saline, respectively.

Solubility ([1]; acetone): Very soluble
Solubility ([1]; chloroform): Very soluble
Solubility ([1]; ethanol): Very soluble
Solubility ([1]; methanol): Very soluble
Solubility ([1]; water): hardly soluble
Structure (SMILES): O=C(OCc1ccccc1)c1cc(C(=O)OCc2ccccc2)c2c(n1)C(=O)C(=O)c1cc(C(=O)OCc3ccccc3)[nH]c1-2 [PQQ tribenzyl ester]

Membrane permeation constant [2]: 1.22 ± 0.37 10^-7 cm^2 · sec^-1
membrane permeation constant relative to that of PQQ.2Na [2]: about 2 times
Structure (SMILES): CCOC(=O)c1cc(C(=O)OCC)c2c(n1)C(=O)C(=O)c1cc(C(=O)OCC)[nH]c1-2 [PQQ triethyl ester]

Structure (SMILES): O=C(O)c1cc(C(=O)O)c2c(n1)C(=O)C(=O)c1cc(C(=O)O)[nH]c1-2 [PQQ, pyrrolo quinoline quinone]
kidney toxicity by urine test (in words) [3]: showed kidney toxicity
kidney toxicity [4]: has kidney toxicity
inhibition of liver diseases ([5]; administered intraperitoneally, Japanese Patent Kokai No. 63-192717): inhibit liver diseases
inhibition of liver diseases ([5]; orally administered, Watanabe et al 1988): not observed

Structure (SMILES): O=C(O)c1cc(C(=O)O)c2c(n1)C(=O)C(=O)c1cc(C(=O)O)[nH]c1-2 [PQQ.2Na, reference compound]
glucose in urine (in words) [3]: glucose was detected
glucose in urine ([3]; 20 mg/kg): -
glucose in urine ([3]; 40 mg/kg): -
glucose in urine ([3]; 80 mg/kg): -
creatinine in serum (in words) [6]: much increase
glucose in serum (in words) [6]: Sharp reduction
kidney toxicity (in words) [6]: kidney toxicity was observed
urea nitrogen in serum (in words) [6]: much increase
Creatinine in serum ([6]; 20 mg/kg): 0.5 mg/dL
Glucose in serum ([6]; 20 mg/kg): 70 mg/dL
Urea nitrogen in serum ([6]; 20 mg/kg): 21 mg/dL
Creatinine in serum ([6]; 40 mg/kg): 2.3 mg/dL
Glucose in serum ([6]; 40 mg/kg): 60 mg/dL
Urea nitrogen in serum ([6]; 40 mg/kg): 110 mg/dL
Creatinine in serum ([6]; 80 mg/kg): 3.4 mg/dL
Glucose in serum ([6]; 80 mg/kg): 57 mg/dL
Urea nitrogen in serum ([6]; 80 mg/kg): 130 mg/dL
Creatinine in serum ([6]; 160 mg/kg): 4.2 mg/dL
Glucose in serum ([6]; 160 mg/kg): 35 mg/dL
Urea nitrogen in serum ([6]; 160 mg/kg): 139 mg/dL
mice died ([7]; 40 mg/kg): No mice died
mice died ([7]; 80 mg/kg): five mice died
mice died ([7]; 160 mg/kg): eight mice all died
mice died ([7]; 200 mg/kg): eight mice all died
Membrane permeation constant [2]: 0.68 ± 0.36 10^-7 cm^2 · sec^-1
